Here are results for one compound from PMC12780140, “Structural basis of sodium ion-dependent carnitine transport by OCTN2” (Nature Communications, 2025).

For the experiment, the target named is T1, OCTN2 (hOCTN2) (Homo sapiens, UniProt O76082, Y211A).
T1 construct: gene SLC22A5; hOCTN2 mutant expressed in Xenopus laevis oocytes
T1 sequence (O76082 1-557 Y211A): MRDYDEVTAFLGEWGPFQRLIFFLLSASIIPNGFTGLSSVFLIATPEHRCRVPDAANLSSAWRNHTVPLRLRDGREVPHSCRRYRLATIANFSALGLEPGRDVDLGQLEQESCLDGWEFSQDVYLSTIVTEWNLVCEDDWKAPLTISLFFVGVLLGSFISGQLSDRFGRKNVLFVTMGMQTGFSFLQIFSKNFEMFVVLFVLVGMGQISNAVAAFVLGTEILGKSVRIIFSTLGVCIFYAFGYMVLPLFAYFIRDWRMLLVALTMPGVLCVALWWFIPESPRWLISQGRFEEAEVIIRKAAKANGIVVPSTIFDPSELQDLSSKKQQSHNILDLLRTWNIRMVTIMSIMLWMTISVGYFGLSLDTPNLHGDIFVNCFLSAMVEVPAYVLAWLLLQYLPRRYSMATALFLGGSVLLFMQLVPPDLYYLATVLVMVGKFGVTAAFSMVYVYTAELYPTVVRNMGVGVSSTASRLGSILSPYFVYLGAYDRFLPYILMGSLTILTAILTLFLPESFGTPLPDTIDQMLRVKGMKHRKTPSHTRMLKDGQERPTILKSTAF
The experiment can be described thus: two-electrode voltage clamp in oocytes, apparent KM (increased versus wildtype). The class given is cell-based. For orientation: Two-electrode voltage clamp is typically applied to oocytes expressing channels or transporters.

`C[N+](C)(C)C[C@H](O)CC(=O)[O-]` [L-carnitine]: the “two-electrode voltage clamp in oocytes, apparent KM (increased versus wildtype)” value is “Mutating this residue to an alanine shows a similar increase in carnitine KM as the mutants above (Fig. 2f)”.
